Measured values from ChEMBL document CHEMBL4007467, “Effects of 6-paradol, an unsaturated ketone from gingers, on cytochrome P450-mediated drug metabolism” (Bioorg Med Chem Lett, 2017).

Experiments:
Assay type in all cases: ADME
CYP1A2 = target: T1, CYP1A2 (Homo sapiens, UniProt P05177); assay: Inhibition of CYP1A2 in human liver microsomes assessed as enzyme-mediated metabolite formation at 0.3 uM using phenacetin as substrate incubated for 5 mins followed by NADPH addition measured after 30 mins by LC-MS/MS analysis relative to control; design: scale not given: the % may be the effect or the level left; conditions: probe phenacetin, read-out: Activity
T1 sequence (P05177 whole entry): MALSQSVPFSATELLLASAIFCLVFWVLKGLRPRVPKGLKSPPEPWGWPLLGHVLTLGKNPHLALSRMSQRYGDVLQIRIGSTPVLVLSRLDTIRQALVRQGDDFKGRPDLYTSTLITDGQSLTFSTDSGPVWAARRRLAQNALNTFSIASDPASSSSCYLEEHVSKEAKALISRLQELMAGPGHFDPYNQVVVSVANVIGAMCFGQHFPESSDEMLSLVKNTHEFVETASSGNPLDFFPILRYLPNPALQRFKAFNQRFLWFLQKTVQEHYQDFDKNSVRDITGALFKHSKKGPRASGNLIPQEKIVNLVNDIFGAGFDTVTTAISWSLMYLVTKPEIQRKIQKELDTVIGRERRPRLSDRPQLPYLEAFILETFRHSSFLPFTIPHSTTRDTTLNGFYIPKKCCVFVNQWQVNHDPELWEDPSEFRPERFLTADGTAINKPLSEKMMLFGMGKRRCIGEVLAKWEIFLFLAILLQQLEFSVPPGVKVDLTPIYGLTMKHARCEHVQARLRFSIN

CYP2A6 = target: T2, CYP2A6 (Homo sapiens, UniProt P11509); assay: Inhibition of CYP2A6 in human liver microsomes assessed as enzyme-mediated metabolite formation at 1 uM using coumarin as substrate incubated for 5 mins followed by NADPH addition measured after 30 mins by LC-MS/MS analysis relative to control; design: scale not given: the % may be the effect or the level left; conditions: probe coumarin, read-out: Activity
T2 sequence (P11509 whole entry): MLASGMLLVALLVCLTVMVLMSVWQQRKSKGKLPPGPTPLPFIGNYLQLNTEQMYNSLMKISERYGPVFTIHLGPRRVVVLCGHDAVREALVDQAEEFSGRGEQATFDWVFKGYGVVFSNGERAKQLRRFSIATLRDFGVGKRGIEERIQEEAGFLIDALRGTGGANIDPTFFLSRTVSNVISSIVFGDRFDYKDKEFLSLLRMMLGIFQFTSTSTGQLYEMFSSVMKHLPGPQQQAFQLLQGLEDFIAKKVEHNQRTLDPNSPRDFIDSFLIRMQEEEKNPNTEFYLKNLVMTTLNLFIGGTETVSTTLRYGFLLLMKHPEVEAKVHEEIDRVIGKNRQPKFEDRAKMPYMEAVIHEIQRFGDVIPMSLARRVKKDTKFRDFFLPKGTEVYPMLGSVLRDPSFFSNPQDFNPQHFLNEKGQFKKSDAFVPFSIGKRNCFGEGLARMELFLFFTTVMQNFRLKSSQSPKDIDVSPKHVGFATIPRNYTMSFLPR

CYP2D6 = CYP2D6 (Homo sapiens, UniProt P10635); assay: Inhibition of CYP2D6 in human liver microsomes assessed as enzyme-mediated metabolite formation at 30 uM using dextromethorphan as substrate incubated for 5 mins followed by NADPH addition measured after 30 mins by LC-MS/MS analysis relative to control; design: scale not given: the % may be the effect or the level left; conditions: probe dextromethorphan, read-out: Activity
CYP3A4 [1] = target: T3, CYP3A4 (Homo sapiens, UniProt P08684); assay: Inhibition of CYP3A4 in human liver microsomes assessed as enzyme-mediated metabolite formation at 3 uM using midazolam as substrate incubated for 5 mins followed by NADPH addition measured after 30 mins by LC-MS/MS analysis relative to control; design: scale not given: the % may be the effect or the level left; conditions: probe midazolam, read-out: Activity
CYP3A4 [2] = target: T3, CYP3A4; assay: Inhibition of CYP3A4 in human liver microsomes assessed as enzyme-mediated metabolite formation at 10 uM using midazolam as substrate incubated for 5 mins followed by NADPH addition measured after 30 mins by LC-MS/MS analysis relative to control; design: scale not given: the % may be the effect or the level left; conditions: probe midazolam, read-out: Activity
Cytochrome P450 1A2 [3] = target: T4, Cytochrome P450 1A2 (Homo sapiens, UniProt P05177); assay: Inhibition of CYP1A2 in human liver microsomes using phenacetin as substrate preincubated for 20 mins followed by substrate addition measured after 30 mins in presence of NADPH by LC-MS/MS analysis
T4 sequence (P05177 whole entry): T1 sequence (P05177 whole entry)

CYP2B6 = target: T5, CYP2B6 (Homo sapiens, UniProt P20813); assay: Inhibition of CYP2B6 in human liver microsomes assessed as enzyme-mediated metabolite formation at 3 uM using bupropion as substrate preincubated for 20 mins followed by substrate addition measured after 30 mins in presence of NADPH by LC-MS/MS analysis relative to control; design: scale not given: the % may be the effect or the level left; conditions: probe bupropion, read-out: Activity
T5 sequence (P20813 whole entry): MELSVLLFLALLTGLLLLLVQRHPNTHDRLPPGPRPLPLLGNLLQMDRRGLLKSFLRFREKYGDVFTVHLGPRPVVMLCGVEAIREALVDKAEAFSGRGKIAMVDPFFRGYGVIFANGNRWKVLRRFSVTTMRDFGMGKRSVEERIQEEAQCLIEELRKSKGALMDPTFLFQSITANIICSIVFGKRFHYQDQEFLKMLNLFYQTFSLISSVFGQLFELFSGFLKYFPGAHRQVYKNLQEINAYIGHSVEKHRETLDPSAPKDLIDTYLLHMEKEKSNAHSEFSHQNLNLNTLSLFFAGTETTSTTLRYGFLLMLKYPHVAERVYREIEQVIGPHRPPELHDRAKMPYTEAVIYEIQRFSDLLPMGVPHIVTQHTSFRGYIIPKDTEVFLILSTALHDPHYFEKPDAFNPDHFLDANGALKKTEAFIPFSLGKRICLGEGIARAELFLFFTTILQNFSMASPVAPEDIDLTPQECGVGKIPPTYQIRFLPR

CYP3A4 [4] = target: T3, CYP3A4; assay: Inhibition of CYP3A4 in human liver microsomes assessed as enzyme-mediated metabolite formation at 0.1 uM using testosterone as substrate preincubated for 20 mins followed by substrate addition measured after 30 mins in presence of NADPH by LC-MS/MS analysis relative to control; design: scale not given: the % may be the effect or the level left; conditions: probe testosterone, read-out: Activity
CYP3A4 [5] = target: T3, CYP3A4; assay: Inhibition of CYP3A4 in human liver microsomes assessed as enzyme-mediated metabolite formation at 10 uM using testosterone as substrate preincubated for 20 mins followed by substrate addition measured after 30 mins in presence of NADPH by LC-MS/MS analysis relative to control; design: scale not given: the % may be the effect or the level left; conditions: probe testosterone, read-out: Activity
Cytochrome P450 1A2 [6] = target: T4, Cytochrome P450 1A2; assay: Inhibition of human CYP1A2 using phenacetin as substrate incubated for 5 mins followed by NADPH addition measured after 30 mins by LC-MS/MS analysis

T3 sequence (P08684 whole entry): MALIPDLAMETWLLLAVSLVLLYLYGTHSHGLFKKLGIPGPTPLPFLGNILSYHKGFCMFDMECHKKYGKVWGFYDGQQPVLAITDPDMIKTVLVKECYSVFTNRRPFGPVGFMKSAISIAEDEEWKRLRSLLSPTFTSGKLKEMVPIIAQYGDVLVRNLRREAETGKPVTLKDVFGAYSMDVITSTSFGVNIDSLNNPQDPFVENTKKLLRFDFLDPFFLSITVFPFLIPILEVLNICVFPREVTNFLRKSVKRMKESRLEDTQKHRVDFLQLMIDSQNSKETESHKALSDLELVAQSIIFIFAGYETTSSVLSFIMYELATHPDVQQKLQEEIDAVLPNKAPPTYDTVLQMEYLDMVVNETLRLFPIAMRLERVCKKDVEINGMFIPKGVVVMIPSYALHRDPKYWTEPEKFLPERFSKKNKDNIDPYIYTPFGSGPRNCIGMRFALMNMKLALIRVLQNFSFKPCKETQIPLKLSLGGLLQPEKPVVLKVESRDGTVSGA
Sequence of CYP2D6 (P10635 whole entry): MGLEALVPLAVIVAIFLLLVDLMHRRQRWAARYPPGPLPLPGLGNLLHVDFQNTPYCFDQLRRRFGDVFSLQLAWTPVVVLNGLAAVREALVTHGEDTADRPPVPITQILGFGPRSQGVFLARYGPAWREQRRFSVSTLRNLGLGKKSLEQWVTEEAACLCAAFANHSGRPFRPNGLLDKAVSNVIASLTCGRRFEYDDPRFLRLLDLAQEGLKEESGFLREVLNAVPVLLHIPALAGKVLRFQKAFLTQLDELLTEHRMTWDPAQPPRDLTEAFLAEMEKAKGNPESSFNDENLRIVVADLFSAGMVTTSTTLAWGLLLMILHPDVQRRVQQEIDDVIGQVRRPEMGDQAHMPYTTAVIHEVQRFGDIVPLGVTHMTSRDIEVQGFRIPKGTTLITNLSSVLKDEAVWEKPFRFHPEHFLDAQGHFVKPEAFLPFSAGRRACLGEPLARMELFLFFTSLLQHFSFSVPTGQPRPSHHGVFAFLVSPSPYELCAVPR

CCCCCCCC(=O)CCc1ccc(O)c(OC)c1
activity at 0.5 h, 0.3 µM (CYP1A2): 97.8% | activity at 0.5 h, 1 µM (CYP2A6): 83.6% | activity at 0.5 h, 30 µM (CYP2D6): 53.8% | activity at 0.5 h, 3 µM (CYP3A4 [1]): 77.4% | activity at 0.5 h, 10 µM (CYP3A4 [2]): 71% | IC50 (Cytochrome P450 1A2 [3]): 19.6 µM | activity at 0.5 h, 3 µM (CYP2B6): 77.3% | activity at 0.5 h, 0.1 µM (CYP3A4 [4]): 93.4% | activity at 0.5 h, 10 µM (CYP3A4 [5]): 83.6% | IC50 (Cytochrome P450 1A2 [6]): 21.4 µM | inhibition (INH) (Cytochrome P450 1A2 [6]; human, 0.5 h): Dose-dependent effect
